This is an account of results in patent US10729690B2, “Antihelminthic medications for pathogenic nematodes” (priority 2016, dated 2020).

Entries after “also recorded” stand apart in the source; their conditions may differ.

In series [1] the test system is F08G5.6::GFP (p38 MAPK PMK-1 pathway-dependent immune effector reporter). The series can be described thus: F08G5.6::GFP immune transcriptional reporter in C. elegans. Type of series: in vivo.
Series [2] deals with P. aeruginosa infection of C. elegans. The series can be described thus: "Slow killing" P. aeruginosa infection (pathogenesis) assay in C. elegans. The class given is in vivo.
A further series deals with P. aeruginosa. The series can be described thus: In vitro P. aeruginosa growth assay in the absence of C. elegans. The class given is cell-based.
In series [3] the test system is C. elegans genome (immune and detoxification gene transcription). The series can be described thus: Transcriptome profiles of wild-type nematodes (Affymetrix whole genome genechips). The class given is in vivo. On the procedure: The effects of R24 on C. elegans was further characterized by generating transcriptome profiles of wild-type nematodes following exposure to either 70 μM R24 or the solvent control DMSO using Affymetrix whole genome […] induced a remarkably robust transcriptional response that involved only a small fraction ( 1.3%) of the genes of the C. elegans genome. […] For example, seventy (70) of the two hundred sixty-nine (269) […]. aeruginosa using a previously described gene set. Troemel et al., (2006).

The test system of series [4] is p38 MAPK PMK-1-dependent antimicrobial immune effectors. The class given is in vivo, C. elegans. Conditions: qRT-PCR.
For series [5], the system named is C. elegans. The series can be described thus: C. elegans survival in the absence of pathogen. The class given is in vivo. The text has this: (§1) In reports describing the anti-infective, immunostimulatory xenobiotic R24 it was noted that this compound was toxic to nematodes growing in the absence of pathogen. Pukkila-Worley et al., (2012). […] FIG. 4A. […] FIG. 4B.

For series [6], the system named is C. elegans. The series can be described thus: C. elegans brood size. Type of series: in vivo. Conditions: absence of pathogen.
Description: as §1

In series [7] the test system is C. elegans genome (immune and detoxification gene transcription). Conditions: previously observed; not dependent on p38 MAPK PMK-1 pathway; cited from earlier work.
Series [8] concerns p38 MAPK PMK-1-dependent antimicrobial immune effectors. Conditions: nanoString codeset of 118 genes; previous study (Pukkila-Worley 2014); cited from earlier work.
The subject of another series is nematodes. The series can be described thus: Nematode killing by UPR inducers combined with immunostimulatory molecules. Type of series: in vivo. The text has this: In one embodiment, the present invention contemplates a method comprising administering small molecules having clinical antihelminthic efficacy by inducing an unfolded protein response (UPR) in endoplasmic reticulum. In one embodiment, the unfolded endoplasmic reticulum protein response is mediated by small molecules including, but not limited to, tunicamycin and bortezomib (Velcade®). […] See, FIG. 4C. Although it is not necessary to understand the mechanism of an invention, it is believed that components of the nematode UPR are strongly conserved and thus UPR inducers will have dose-limiting toxicity in mammals.
Nematocidal activity of different combinations of these molecules and known anti-helminthics (e.g. ivermectin and albendazole) can be tested to identify those that have synergistic activity. For example, antihelminthic efficacy of chemical inducers of the UPR (e.g. tunicamycin) can be used.

For `Cc1ccc(Nc2nc(N)c3ccccc3n2)cc1Cl` [R24], the “F08G5.6::GFP expression in nsy-1(ums8) mutant exposed to R24, compared to untreated nsy-1(ums8) animals” value in series [1] (nsy-1(ums8) gain-of-function mutant, 70 μM R24 (FIG. 11B)) is “markedly increased”. For the same compound, the “F08G5.6::GFP transgene expression” value in series [1] (uninfected nematodes) is on record as “strongly induced”. Besides, in series [2] (p38 MAP kinase pathway mutants, data not shown), the “ability of R24 to prolong lifespan of C. elegans with mutations in four other p38 MAP kinase pathway components” value is recorded as “dramatically attenuated”. Besides, in series [2] (pmk-1(km25) null mutants, P<0.001), the “R24-mediated lifespan prolongation of pmk-1(km25) null mutants infected with P. aeruginosa, compared to compound-treated wild-type” value was “Lack of improved survivability; also recorded: significantly decreased”. Moreover, the “C. elegans survival during P. aeruginosa bacterial infection” value in [2] (wild-type C. elegans) is on record as “dose-dependent improvement; also recorded: Improved survivability; also recorded: protects”. In the series on P. aeruginosa, the “growth of P. aeruginosa in an in vitro assay” value is given as “lack of effect; also recorded: did not have any effect”. Also, the “number of the 269 R24-induced genes activated during infection with P. aeruginosa” value in series [3] (70 μM R24, overlap P<2.7×10^−16) was found to be 70 genes. Also, in series [3] (70 μM R24 vs DMSO), the “number of genes induced more than 50-fold” value was 125 genes. Moreover, the “number of genes upregulated three-fold or greater” value in series [3] (70 μM R24 vs DMSO, P<0.025) is reported as 269 genes. In addition, in [3] (70 μM R24 vs solvent control DMSO, wild-type), the “fraction of the genes of the C. elegans genome involved in the transcriptional response” value is reported as approximately 1.3%. In [4], the “antimicrobial immune effectors induced by R24 in wild-type that pmk-1(km25) mutants failed to upregulate” value is recorded as “six of ten”. The C. elegans survival result in the series with C. elegans [5] is “dose dependent shortening”. Also, the “brood sizes of nematodes exposed from the first larval stage” value with C. elegans [6] is given as “dramatically smaller”. In addition, in series [7], the “induction of detoxification genes/enzymes (CYPs, GSTs, UDPs)” value is listed as “robust induction; also recorded: causes the induction”. Moreover, in series [8], the “number of codeset genes whose induction by R24 was dependent on the p38 MAPK PMK-1” value is reported as 13 genes.
`CC(C)C[C@H](NC(=O)[C@H](Cc1ccccc1)NC(=O)c1cnccn1)B(O)O` [bortezomib]: the “killing of nematodes in combination with immunostimulatory molecules” value with nematodes was “act synergistically”.
Consider tunicamycin, for which the “killing of nematodes in combination with immunostimulatory molecules” value in the series on nematodes is recorded as “act synergistically”.
